One block for each molecule: values may come before it. Calls of active or inactive are those of the source.
Columns and labels:
[1] = molecular target: T1, Small ubiquitin-related modifier 1 (Homo sapiens, UniProt P63165); test: SUMO1 protein interaction blockers, potency – biochemical, fluorescence polarization, uHTS hits, dose response (AID 624382); format: functional; conditions: read-out: IC50_Mean
[2] = molecular target: T1, Small ubiquitin-related modifier 1; test: SUMO1 protein-protein binding blockers, potency – biochemical, FRET, dose response (AID 624383); format: functional; conditions: read-out: IC50_Mean
HEK293 [3] = test: EBV LMP1 TES2 canonical NF-kB signalling blockers – cell-based, HEK293, luciferase, cherry-pick, dose response (AID 588343); format: functional; conditions: Homo sapiens
[4] = molecular target: T2, DNA repair and recombination protein RAD54-like (Homo sapiens, UniProt Q92698); test: RAD54 Holliday junction migration blockers – biochemical, fluorescence, cherry-picked samples, dose series, confirmation (AID 651657); format: functional
T2 sequence (Q92698 whole entry): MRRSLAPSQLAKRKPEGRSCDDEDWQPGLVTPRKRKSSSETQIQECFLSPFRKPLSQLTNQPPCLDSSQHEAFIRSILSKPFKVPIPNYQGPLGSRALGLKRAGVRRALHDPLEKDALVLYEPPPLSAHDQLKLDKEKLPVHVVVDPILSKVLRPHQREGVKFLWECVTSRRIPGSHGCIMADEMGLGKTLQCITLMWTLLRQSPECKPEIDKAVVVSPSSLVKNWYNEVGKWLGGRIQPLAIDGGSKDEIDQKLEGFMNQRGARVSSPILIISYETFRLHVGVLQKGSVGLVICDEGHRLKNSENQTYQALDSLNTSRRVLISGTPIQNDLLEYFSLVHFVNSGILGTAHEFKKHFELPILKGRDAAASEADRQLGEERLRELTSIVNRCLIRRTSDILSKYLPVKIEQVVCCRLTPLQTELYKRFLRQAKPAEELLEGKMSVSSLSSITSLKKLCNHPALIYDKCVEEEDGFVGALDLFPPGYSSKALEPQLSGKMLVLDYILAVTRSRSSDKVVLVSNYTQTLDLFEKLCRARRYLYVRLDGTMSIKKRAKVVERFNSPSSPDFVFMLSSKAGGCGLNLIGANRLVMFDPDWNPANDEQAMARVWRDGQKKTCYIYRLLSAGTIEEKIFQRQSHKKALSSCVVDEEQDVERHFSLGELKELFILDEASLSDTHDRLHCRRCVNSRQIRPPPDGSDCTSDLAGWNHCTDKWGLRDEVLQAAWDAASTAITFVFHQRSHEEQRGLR

[5] = inhibition of ARNT PAS-B/TACC3 complex formation – biochemical, AlphaScreen, cherry-picked samples, confirmation (AID 651703); format: functional, Homo sapiens;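 note: His-tagged ARNT PAS-B domain paired with GST-TACC3 E629A dimer coactivator fragment; potency of inhibitors that break up the complex and lower AlphaScreen signal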
HEK293 [6] = test: NOD2 signaling inhibitors in MDP-stimulated cells, cell-based, uHTS, luminescence (AID 2001); format: functional; conditions: Homo sapiens
HEK293 [7] = test: cells; format: functional, cell-based; conditions: Homo sapiens
HEK293 [8] = test: cells; format: functional, cell-based; conditions: Homo sapiens; remark: listed apart in the source
HEK293 [9] = test: cells; format: functional, cell-based; conditions: Homo sapiens; remark: listed apart in the source
HEK293 [10] = test: inhibition of NOD1-driven NF-kB reporter – cell-based, luminescence, uHTS, primary screen (AID 1578); format: functional; conditions: Homo sapiens
[11] = molecular target: Nucleotide-binding oligomerization domain-containing protein 2 (Homo sapiens, UniProt Q9HC29); test: inhibition of NOD2-driven NF-kB reporter – cell-based, luminescence, uHTS, HEK293 (AID 1566); format: functional
Chain of Nucleotide-binding oligomerization domain-containing protein 2 (Q9HC29 whole entry, the tested form may be a part): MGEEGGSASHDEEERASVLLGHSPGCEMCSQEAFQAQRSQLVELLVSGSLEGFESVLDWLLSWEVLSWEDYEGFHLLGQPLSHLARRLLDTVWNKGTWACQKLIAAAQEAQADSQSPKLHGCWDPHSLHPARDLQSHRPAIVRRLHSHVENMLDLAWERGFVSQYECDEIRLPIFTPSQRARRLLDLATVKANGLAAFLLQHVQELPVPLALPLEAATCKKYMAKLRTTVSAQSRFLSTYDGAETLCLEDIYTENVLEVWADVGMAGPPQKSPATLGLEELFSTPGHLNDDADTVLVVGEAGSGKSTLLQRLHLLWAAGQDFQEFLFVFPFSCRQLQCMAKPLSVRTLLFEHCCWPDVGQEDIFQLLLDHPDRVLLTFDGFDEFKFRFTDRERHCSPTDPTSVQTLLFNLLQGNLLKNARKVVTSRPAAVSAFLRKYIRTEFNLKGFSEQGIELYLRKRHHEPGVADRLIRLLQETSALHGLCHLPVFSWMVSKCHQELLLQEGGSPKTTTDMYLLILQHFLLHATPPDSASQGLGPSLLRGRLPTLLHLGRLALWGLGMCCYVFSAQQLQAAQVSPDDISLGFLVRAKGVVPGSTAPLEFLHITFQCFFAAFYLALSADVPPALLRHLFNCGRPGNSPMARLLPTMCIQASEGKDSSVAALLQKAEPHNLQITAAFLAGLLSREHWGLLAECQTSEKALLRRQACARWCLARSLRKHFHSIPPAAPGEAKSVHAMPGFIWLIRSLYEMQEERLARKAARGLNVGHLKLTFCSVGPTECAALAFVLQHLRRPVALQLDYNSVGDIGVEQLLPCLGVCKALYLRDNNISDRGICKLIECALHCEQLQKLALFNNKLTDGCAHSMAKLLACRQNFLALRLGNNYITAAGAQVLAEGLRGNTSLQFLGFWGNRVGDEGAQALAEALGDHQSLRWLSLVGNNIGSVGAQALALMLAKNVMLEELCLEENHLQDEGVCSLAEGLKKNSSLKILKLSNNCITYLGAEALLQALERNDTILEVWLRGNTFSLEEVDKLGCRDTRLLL

[12] = molecular target: T3, Apoptotic protease-activating factor 1 (Homo sapiens, UniProt O14727); format: functional;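 for EC50 Mean: caspase-3 cleavage of fluorogenic Rh110 DEVD substrate downstream of apoptosome activation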
T3 sequence (O14727 whole entry): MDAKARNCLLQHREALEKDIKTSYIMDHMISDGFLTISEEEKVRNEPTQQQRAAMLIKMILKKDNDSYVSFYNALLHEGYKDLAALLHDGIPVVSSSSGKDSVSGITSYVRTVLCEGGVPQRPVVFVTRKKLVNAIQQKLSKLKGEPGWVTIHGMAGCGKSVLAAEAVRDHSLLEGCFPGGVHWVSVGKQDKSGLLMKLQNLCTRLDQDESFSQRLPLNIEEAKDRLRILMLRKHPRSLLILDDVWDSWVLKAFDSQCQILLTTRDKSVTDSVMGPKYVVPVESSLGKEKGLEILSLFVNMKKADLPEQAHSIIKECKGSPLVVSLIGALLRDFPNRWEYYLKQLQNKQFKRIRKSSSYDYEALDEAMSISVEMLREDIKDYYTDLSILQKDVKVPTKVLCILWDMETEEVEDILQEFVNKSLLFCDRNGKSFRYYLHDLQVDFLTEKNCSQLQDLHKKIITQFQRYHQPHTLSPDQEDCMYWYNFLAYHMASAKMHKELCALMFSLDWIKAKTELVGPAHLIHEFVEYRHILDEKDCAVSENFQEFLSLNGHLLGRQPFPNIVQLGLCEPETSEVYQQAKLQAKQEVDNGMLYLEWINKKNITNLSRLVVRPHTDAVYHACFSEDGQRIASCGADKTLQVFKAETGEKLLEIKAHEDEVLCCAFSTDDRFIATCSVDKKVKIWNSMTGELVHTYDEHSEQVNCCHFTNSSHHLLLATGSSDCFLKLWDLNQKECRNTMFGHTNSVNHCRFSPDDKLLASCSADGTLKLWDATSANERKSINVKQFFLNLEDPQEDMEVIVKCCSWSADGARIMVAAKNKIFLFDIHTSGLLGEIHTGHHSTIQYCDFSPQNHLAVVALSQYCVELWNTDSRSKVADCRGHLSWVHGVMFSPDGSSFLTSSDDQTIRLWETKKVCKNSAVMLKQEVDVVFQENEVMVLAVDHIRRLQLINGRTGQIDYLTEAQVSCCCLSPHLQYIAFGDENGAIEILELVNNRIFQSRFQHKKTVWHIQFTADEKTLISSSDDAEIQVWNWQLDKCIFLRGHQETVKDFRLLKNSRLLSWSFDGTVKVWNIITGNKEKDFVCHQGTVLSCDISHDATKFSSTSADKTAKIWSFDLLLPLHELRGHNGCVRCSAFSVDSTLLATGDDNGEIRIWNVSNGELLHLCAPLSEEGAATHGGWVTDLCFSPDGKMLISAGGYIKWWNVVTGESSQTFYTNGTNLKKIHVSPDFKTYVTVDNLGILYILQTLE

[13] = molecular target: T3, Apoptotic protease-activating factor 1; test: SAR analysis of small molecule Activators of Apaf-1 in a Fluorescent assay.; format: functional; conditions: read-out: EC50_Mean
Interleukin-8 = molecular target: T4, Interleukin-8 (Homo sapiens, UniProt P10145); test: Dose Response confirmation of uHTS small molecule hits for cystic fibrosis induced NFkb Inhibitors in a PAF-induced IL8 counterscreen.; format: functional; conditions: read-out: IC50_Mean
T4 sequence (P10145 whole entry): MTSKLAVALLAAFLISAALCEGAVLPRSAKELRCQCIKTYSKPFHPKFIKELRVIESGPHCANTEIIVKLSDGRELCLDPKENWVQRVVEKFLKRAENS

H9c2 = test: cells; format: functional, cell-based; conditions: Rattus norvegicus, H9c2, Myocardium;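 note: confirmatory concentration-response retest of ultra-high-throughput screening hits for modulation of myocardial damage; cell death induced by hydrogen peroxide oxidative stress; compound pretreatment for 60 min then peroxide exposure for 2 h; potency is for protecting the cells against peroxide damage rather than for killing them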
[14] = molecular target: Ras and Rab interactor 1/Tyrosine-protein kinase ABL1 (Homo sapiens, UniProt P00519+Q13671); format: functional;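 note: biochemical TR-FRET dose-response test measuring inhibition of binding between Rin1 and Abl proteins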
Chain of Ras and Rab interactor 1/Tyrosine-protein kinase ABL1 (P00519 whole entry, the tested form may be a part): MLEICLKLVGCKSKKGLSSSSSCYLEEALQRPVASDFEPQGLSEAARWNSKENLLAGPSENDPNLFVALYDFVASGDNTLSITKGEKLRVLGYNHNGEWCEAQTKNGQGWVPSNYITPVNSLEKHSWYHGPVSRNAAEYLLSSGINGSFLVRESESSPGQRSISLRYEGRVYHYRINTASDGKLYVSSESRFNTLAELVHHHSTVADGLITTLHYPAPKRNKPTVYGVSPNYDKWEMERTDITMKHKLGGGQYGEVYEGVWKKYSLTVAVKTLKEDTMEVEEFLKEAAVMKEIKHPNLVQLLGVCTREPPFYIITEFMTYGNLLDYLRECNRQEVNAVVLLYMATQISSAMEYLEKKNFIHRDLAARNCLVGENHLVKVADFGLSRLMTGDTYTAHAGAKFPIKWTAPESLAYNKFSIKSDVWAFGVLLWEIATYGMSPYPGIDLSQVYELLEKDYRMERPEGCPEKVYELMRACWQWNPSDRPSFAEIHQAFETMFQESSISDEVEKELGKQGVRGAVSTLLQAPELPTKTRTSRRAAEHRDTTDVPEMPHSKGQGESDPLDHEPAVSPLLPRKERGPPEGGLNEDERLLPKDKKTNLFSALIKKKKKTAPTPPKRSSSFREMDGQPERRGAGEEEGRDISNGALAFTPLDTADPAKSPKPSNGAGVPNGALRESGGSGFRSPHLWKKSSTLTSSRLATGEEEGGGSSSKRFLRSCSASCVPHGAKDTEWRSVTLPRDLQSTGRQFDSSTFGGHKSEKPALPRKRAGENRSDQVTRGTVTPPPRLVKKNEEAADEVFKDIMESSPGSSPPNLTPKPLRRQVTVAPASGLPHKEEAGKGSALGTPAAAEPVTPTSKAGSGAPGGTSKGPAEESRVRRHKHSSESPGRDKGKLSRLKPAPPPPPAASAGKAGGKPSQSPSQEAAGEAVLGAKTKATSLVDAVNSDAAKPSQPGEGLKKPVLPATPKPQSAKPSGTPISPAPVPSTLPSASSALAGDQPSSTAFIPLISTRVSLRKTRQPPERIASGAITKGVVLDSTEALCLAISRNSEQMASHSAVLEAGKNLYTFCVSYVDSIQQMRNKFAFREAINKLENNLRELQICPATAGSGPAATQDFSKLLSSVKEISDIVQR
Chain of Ras and Rab interactor 1/Tyrosine-protein kinase ABL1 (Q13671 whole entry, the tested form may be a part): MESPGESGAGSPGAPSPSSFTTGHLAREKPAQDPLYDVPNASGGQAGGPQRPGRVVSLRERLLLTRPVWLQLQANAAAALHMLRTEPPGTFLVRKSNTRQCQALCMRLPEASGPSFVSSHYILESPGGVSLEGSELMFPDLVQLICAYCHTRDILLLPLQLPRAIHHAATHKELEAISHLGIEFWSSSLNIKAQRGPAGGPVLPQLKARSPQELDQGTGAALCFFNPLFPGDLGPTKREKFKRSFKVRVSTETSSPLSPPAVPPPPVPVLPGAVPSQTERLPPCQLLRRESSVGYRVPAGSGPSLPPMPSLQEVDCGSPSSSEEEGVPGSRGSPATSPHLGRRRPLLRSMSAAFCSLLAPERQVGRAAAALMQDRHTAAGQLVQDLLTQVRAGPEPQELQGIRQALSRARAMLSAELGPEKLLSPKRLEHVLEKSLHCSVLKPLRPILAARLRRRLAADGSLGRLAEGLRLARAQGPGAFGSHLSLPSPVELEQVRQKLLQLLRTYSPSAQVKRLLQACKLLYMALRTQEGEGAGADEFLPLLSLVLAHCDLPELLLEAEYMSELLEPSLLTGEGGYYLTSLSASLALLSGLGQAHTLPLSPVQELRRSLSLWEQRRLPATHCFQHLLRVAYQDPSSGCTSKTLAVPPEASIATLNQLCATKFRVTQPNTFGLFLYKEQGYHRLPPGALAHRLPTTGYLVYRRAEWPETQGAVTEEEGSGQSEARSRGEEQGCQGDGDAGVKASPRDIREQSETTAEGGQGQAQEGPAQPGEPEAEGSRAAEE

[15] = molecular target: T5, Carboxy-terminal domain RNA polymerase II polypeptide A small phosphatase 1 (Homo sapiens, UniProt Q9GZU7); test: CTDSP1 inhibitors, concentration-response, biochemical, absorbance readout, ultra-high-throughput screen actives (AID 540297); format: functional
T5 sequence (Q9GZU7 whole entry): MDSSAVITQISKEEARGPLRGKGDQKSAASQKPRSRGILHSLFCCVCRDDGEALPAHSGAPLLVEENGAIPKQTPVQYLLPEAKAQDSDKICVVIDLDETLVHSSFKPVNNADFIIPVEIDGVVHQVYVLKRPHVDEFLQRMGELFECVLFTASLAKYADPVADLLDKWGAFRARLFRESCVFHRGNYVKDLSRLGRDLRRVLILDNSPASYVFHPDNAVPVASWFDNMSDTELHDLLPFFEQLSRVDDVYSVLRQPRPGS

[16] = molecular target: Hepatocyte nuclear factor 4-alpha (Homo sapiens, UniProt P41235); format: functional, cell-based;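 note: biochemical luminescence-based dose-response counterscreen measuring inhibition of HNF4 dimerization, run alongside a screen for blockers of ABHD5–perilipin-5 interaction; split luciferase complementation of HNF4 fusion proteins in cell lysate measuring dimerization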
Chain of Hepatocyte nuclear factor 4-alpha (P41235 whole entry, the tested form may be a part): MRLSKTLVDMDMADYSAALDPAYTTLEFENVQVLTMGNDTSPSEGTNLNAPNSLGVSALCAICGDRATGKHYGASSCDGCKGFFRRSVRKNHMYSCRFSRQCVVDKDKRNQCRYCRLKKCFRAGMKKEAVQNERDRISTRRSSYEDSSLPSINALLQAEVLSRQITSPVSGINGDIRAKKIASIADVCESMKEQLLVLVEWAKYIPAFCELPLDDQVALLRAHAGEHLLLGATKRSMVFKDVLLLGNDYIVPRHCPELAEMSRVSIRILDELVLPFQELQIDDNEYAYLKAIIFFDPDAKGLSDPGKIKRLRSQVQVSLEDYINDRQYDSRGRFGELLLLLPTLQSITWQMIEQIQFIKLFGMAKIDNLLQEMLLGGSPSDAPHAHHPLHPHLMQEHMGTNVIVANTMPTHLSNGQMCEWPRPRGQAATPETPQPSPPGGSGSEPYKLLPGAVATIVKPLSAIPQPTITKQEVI

Bcl-2-related protein A1 = molecular target: T6, Bcl-2-related protein A1 (Mus musculus, UniProt Q07440); format: functional;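 note: confirmatory dose–response counterscreen on Bfl-1, used to check hits from a UBC13 polyubiquitin inhibitor campaign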
T6 sequence (Q07440 whole entry): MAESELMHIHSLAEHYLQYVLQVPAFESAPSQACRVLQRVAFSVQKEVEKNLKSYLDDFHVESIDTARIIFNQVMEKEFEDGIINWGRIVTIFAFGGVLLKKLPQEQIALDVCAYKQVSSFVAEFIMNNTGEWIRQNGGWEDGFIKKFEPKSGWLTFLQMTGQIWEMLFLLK

[17] = Luminescence Cell-Based Dose Retest to Confirm Inhibitors of Cancer Stem Cells. [Related pubchem assays (depositor defined):AID2717, AID2721]; format: functional; conditions: Homo sapiens
[18] = loss of viability in HepG2 cells – cell-based, CellTiter-Glo, cherry-picked, cytotoxicity control for Shn3 inhibitor project, dose response (AID 624134); format: functional
[19] = reduction of Shn3 3'UTR-driven luciferase in osteoblasts – cell-based, Clone20 osteoblasts, firefly luciferase, cherry-picked, dose response (AID 624132); format: functional;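 note: firefly luciferase luminescence from reporter carrying the Shn3 3'UTR in osteoblasts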
[20] = molecular target: T7, Ubiquitin-conjugating enzyme E2 N (Homo sapiens, UniProt P61088); format: functional
T7 sequence (P61088 whole entry): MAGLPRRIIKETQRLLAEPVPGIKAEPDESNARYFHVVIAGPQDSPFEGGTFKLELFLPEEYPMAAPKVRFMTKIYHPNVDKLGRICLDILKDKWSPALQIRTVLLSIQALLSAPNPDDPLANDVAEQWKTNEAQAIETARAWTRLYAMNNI

INS1 = test: INS-1E survival protection against cytokine death – cell-based, luminescence, retest, dose response (AID 449756); format: functional; conditions: Rattus norvegicus;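 note: cell death triggered by IL-1 beta plus TNF-alpha plus IFN-gamma mixture; protective hits raise ATP signal compared with cytokine alone wells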
[21] = non-specific 3'UTR reporter inhibition in Clone20-Shn3RL – cell-based, Renilla luciferase, cherry-picked, counter-screen for Shn3 inhibitor project, dose response (AID 624133); format: functional
[22] = molecular target: T7, Ubiquitin-conjugating enzyme E2 N; format: functional; remark: listed apart in the source
[23] = viability of PTEN-deleted HCT116 cells – cell-based, HCT116 PTEN knockout, dose response (AID 1047); format: functional;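 note: HCT116 colon tumor cells with PTEN knocked out; cells exposed to compound for 60 hours before readout; potency for loss of cell viability measured by luminescence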
[24] = viability of HCT116 lacking mutant beta-catenin – cell-based, human colon tumor, dose response (AID 1045); format: functional;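 note: HCT116 colon tumor cells with beta catenin knocked out; cells exposed to compound for 60 hours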
[25] = molecular target: T8, Low molecular weight phosphotyrosine protein phosphatase (Homo sapiens, UniProt P24666); format: functional; conditions: read-out: IC50_Mean
T8 sequence (P24666 whole entry): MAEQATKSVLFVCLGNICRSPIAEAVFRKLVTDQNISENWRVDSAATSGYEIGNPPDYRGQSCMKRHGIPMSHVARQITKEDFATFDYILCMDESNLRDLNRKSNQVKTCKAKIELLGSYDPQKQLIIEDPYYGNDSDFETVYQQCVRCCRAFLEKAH

[26] = molecular target: T8, Low molecular weight phosphotyrosine protein phosphatase; format: functional; conditions: read-out: IC50_Mean; remark: listed apart in the source

T1 sequence (P63165 whole entry): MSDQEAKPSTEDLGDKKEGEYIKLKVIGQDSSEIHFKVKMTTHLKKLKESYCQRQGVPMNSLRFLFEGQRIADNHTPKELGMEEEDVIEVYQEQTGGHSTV

Compound: CC(=O)Nc1ccc(NC(=O)c2cc(-c3ccc(C)cc3O)n[nH]2)cc1
IC50 [1]: > 66.6 µM (inactive)
IC50 [2]: 13.3 µM (active)

Compound: COc1ccc(C(=O)Nc2cc(C)c(NC(=O)c3ccccc3OC)cn2)cc1
IC50 [1]: > 66.6 µM (inactive)
AC50 (HEK293 [3]): 169 µM (active)
IC50 [2]: 1.48 µM (active)
AC50 [4]: 100 µM (inactive)

Compound: O=C(NCCCn1ccnc1)c1cc2cc([N+](=O)[O-])ccc2oc1=O
AC50 [5]: 131 µM (active)

Compound: CCCCc1c(C)c(C#N)c2nc3ccccc3n2c1O
IC50 (HEK293 [6]): 10.8 µM (inactive)
IC50 (HEK293 [7]): > 20 µM (inactive)
IC50 (HEK293 [8]): > 20 µM (inactive)
IC50 (HEK293 [9]): 13.1 µM (active)
EC50 (HEK293 [10]): 4.1 µM (active)
EC50 [11]: 8.9 µM (active)
IC50 [12]: 7.79 µM (active)

EC50 [13]: > 100 µM (inactive)
Compound: CC(CNc1ccc(Oc2ccccc2)cc1)C(=O)O (configuration not stated)

Compound: COc1ccc(CNc2nn3c(-c4cccc(C(=O)N(C)C)c4)cnc3s2)cc1
IC50 (Interleukin-8): 18 µM (inactive)
IC50 (H9c2): 42.1 µM (inactive)

IC50 [14]: 7.81 µM (active)
Compound: CCOC(=O)N1CCN(C(=O)Nc2ccc(NC(=O)N3CCN(C(=O)OCC)CC3)cc2)CC1

IC50 [14]: 3.59 µM (active)
Compound: CCOC(=O)CCCCCC(=O)Nc1ccc2c(c1)C(=O)N([C@H](C)CO)C[C@@H](C)[C@@H](CN(C)C(=O)CCC(F)(F)F)OCCCC[C@H](C)O2

IC50 [15]: 6.25 µM (active)
IC50 [16]: 12.9 µM (inactive)
Compound: CCCCn1c(SCC(=O)NCc2ccco2)nnc1-c1ccoc1C

EC50 [13]: > 100 µM (inactive)
Compound: COc1ccc(C2=NOC3(CC(=O)N(c4ccc(C)cc4)C3=O)C2)cc1 (configuration not stated)

Compound: NC1=NC[C@@H](CC2CCCCC2)N1CCc1cc(C(F)(F)F)cc(C(F)(F)F)c1
IC50 (Bcl-2-related protein A1): > 20 µM (inactive)
AC50 [17]: 3.19 µM (active)
AC50 [18]: 14.7 µM (active)
AC50 [19]: 9.92 µM (active)
IC50 [20]: 19.6 µM (active)
AC50 (INS1): 7.06 µM (active)
AC50 [21]: 24.8 µM (active)
IC50 [12]: 60.4 µM (active)
IC50 [22]: 11.5 µM (active)

Compound: CC1=CC(C)(C)Nc2ccc(OC(=O)CN3C(=O)C4CCCCC4C3=O)cc21 (configuration not stated)
EC50 [23]: 7.23 µM (active)
IC50 [16]: 4.53 µM (active)
EC50 [24]: 4.74 µM (active)

IC50 [15]: 1.57 µM (active)
IC50 [25]: 35 µM (inactive)
IC50 [26]: 31.5 µM (inactive)
Compound: COc1ccc(NC(=O)/C(C#N)=C\c2ccc(OCc3ccc(C(=O)O)cc3)c(OC)c2)cc1
